GI50 and TGI data for 19 molecules are collected here from PubChem BioAssay (NCI).

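A five-concentration, 48-hour dose response in 96-well plates underlies each endpoint, interpolated linearly between surrounding concentrations. The concentration for 50% growth inhibition is given as GI50. At the TGI there is no net growth.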

What all share (test): inhibition of tumour cell growth, NCI panel, 48 h
The subject of assay [1] is HOP-92 NSCLC.
In assay [2] the test system is NCI-H23 lung.
The test system of assay [3] is MCF7 breast.
Assay [4] deals with RXF 393 renal.
Assay [5] concerns ACHN renal.
Assay [6] concerns NCI/ADR-RES ovarian.
Assay [7] deals with MDA-MB-435.
The test system of assay [8] is HCT-15 colon.
Assay [9] concerns LOX IMVI melanoma.
Assay [10] concerns HL-60(TB) leukemia.

With `CCc1c(C)c2cc(-n3c(-c4ccc(OC)cc4)csc3=N)c(O)c(C)c2oc1=O`, the GI50 is 1.88 µM in [1]; 1.51 µM in assay [2]; 0.82 µM in assay [3]; 1.74 µM in assay [4]; 1.53 µM in assay [5]; 1.62 µM in assay [6]. Further, the values for the GI50 in assay [7] and in assay [8] were 0.355 µM and 1.21 µM, respectively. Further, the TGI came to 7.76 µM in assay [1]; 5.16 µM in [2]; 3.07 µM in assay [3]; 6.7 µM in assay [4]; 3.6 µM in assay [5]; 10.6 µM in assay [6]. In addition, the TGI in assay [7] was found to be 4.16 µM; in assay [8], 3.95 µM.

Consider `Clc1ccc(-c2nc(NCc3ccco3)c3ccccc3n2)c(Cl)c1`, for which the GI50 in assay [1] was 4.94 µM; in [2] it was 17.1 µM; in [3], 6.38 µM; in assay [4], 20.4 µM; in [5] it was 7.81 µM; in assay [6], 26.3 µM. Besides, the GI50 in assay [7] was 16.1 µM; in [9], 8.98 µM; in assay [8] it was 13.1 µM. Besides, the TGI is 74.7 µM in [1]; 60.5 µM in assay [2]; more than 100 µM in [3]; 43.1 µM in assay [4]; 58.3 µM in assay [5]; more than 100 µM in assay [6]. The TGI in assay [7] was found to be 33.7 µM; in assay [9], 26.8 µM; in assay [8], 42.7 µM.

Regarding `COc1cc(C(=O)O[C@H](C(=O)NCCCCNC(=O)[C@@H](OC(=O)c2cc(OC)cc3c(C)cccc23)[C@]2(C)CO2)[C@]2(C)CO2)c2cccc(C)c2c1`, the GI50 is 0.0452 µM in assay [1]; less than 0.01 µM in assay [2]; less than 0.01 µM in assay [3]; less than 0.01 µM in assay [10]; less than 0.01 µM in assay [5]; 0.199 µM in assay [6]. The GI50 in assay [7] was 0.144 µM; in assay [9] it was less than 0.01 µM; in assay [8], 0.104 µM. The TGI in assay [1] was 0.22 µM; in assay [2] it was 0.118 µM; in assay [3], less than 0.0355 µM; in assay [10], less than 0.01 µM; in assay [5], less than 0.01 µM; in [6], 0.904 µM. For the same molecule, the TGI in assay [7] is 0.61 µM; in [9], less than 0.01 µM; in assay [8], 1.18 µM.

Take `O=C(CI)Nc1ccc(Br)cc1`: the GI50 in assay [2] is 1.87 µM; in assay [3] it was 1.91 µM; in [4], 1.7 µM; in assay [5], 2 µM; in assay [6], 3.03 µM; in assay [7], 2.04 µM. Besides, the GI50 in assay [9] was 0.326 µM; in assay [8], 2.09 µM. The TGI turned out to be 4.61 µM in assay [2]; 3.95 µM in [3]; 3.21 µM in [4]; 4.06 µM in assay [5]; 9.76 µM in [6]; 4.7 µM in assay [7]. Further, the TGI amounted to 1.46 µM in assay [9] and 5.13 µM in [8].

In the case of `N#CC1=C(N)OC2=C(CCOc3c2ccc2ccccc32)C1c1ccc(Br)cc1` (stereo not given), the GI50 in assay [1] was 14.1 µM; in assay [2], 32.8 µM; in assay [3], 20.9 µM; in assay [10], 17 µM; in [4], 22.8 µM; in [5], 41.3 µM. Also, the GI50 in assay [6] is 33.4 µM; in [7] it was 16 µM; in [8], 31 µM. The TGI in [1] was 47.4 µM; in assay [2], more than 100 µM; in assay [3], 94.2 µM; in [10] it was 37.6 µM; in assay [4], 80.9 µM; in [5], more than 100 µM. The TGI was more than 100 µM in [6], 61.2 µM in [7] and more than 100 µM in [8].

With `O=C1C(Cl)=C(NCCCN(CCCNC2=C(Cl)C(=O)c3ccccc3C2=O)C2=C(Cl)C(=O)c3ccccc3C2=O)C(=O)c2ccccc21`, the GI50 is 2.23 µM in assay [1]; 1.69 µM in [2]; 1.48 µM in [3]; 10.7 µM in assay [4]; 4.06 µM in assay [6]; 1.74 µM in assay [7]. The GI50 in assay [8] was 1.66 µM. In addition, the TGI is 14 µM in [1]; 5.26 µM in [2]; 3.89 µM in [3]; 22.5 µM in assay [4]; more than 100 µM in assay [6]; 3.26 µM in assay [7]. The molecule also yielded a TGI in assay [8] of 3.78 µM.

With `Cc1cc(N2CCOCC2)nc(NCc2cc(Nc3ccnc4cc(Cl)ccc34)ccc2F)n1`, the GI50 in assay [2] was 1.86 µM; in assay [3], 0.348 µM; in [10], 2.31 µM; in [4], 1.63 µM; in assay [5] it was 1.83 µM; in assay [6], 1.73 µM. Besides, the GI50 is 1.56 µM in assay [7], 1.75 µM in assay [9] and 1.7 µM in assay [8]. The TGI in assay [2] turned out to be 4.2 µM; in [3], 1.5 µM; in assay [10] it was 4.82 µM; in assay [4], 3.37 µM; in assay [5], 3.33 µM; in assay [6] it was 3.31 µM. Further, the TGI in [7] worked out at 2.92 µM; in assay [9], 3.27 µM; in assay [8], 3.3 µM.

Take `COC(=O)c1cc2cc(/C=C3/SC(=S)N(N(C(C)=O)C(C)=O)C3=O)oc2n1Cc1ccccc1`: the GI50 is 44 µM in [1]; 21.4 µM in assay [2]; 34.1 µM in [3]; 22 µM in assay [4]; 18.3 µM in assay [5]; 14.4 µM in assay [6]. The GI50 was 29 µM in assay [7], 13.9 µM in assay [9] and 15 µM in assay [8]. For the same molecule, the TGI in [1] is more than 100 µM; in assay [2], 44.6 µM; in assay [3], more than 100 µM; in [4], 56.7 µM; in [5], 35.9 µM; in assay [6], 35 µM. For the same molecule, the TGI in assay [7] is more than 100 µM; in assay [9] it was 31.4 µM; in assay [8], 52.1 µM.

Regarding `CCOCCOCCOCCOCCOCCOCCOCCOCCOCCO` (tested in a mixture with another compound), the GI50 is 0.643 µM in assay [1]; 0.957 µM in [2]; 1.04 µM in assay [3]; 0.649 µM in assay [10]; 1.85 µM in assay [4]; 3.96 µM in assay [6]. The results for the GI50 in [7] and in [9] were 1.45 µM and 0.81 µM, respectively. Also, the TGI in assay [1] was 2.9 µM; in assay [2], 5.32 µM; in assay [3] it was 4.58 µM; in [10] it was 1.59 µM; in [4], 8.88 µM; in assay [6], more than 32.5 µM. The molecule further returned a TGI in assay [9] of 2.9 µM.

Regarding `COc1ccc(-c2c(-c3ccc(C#N)c(F)c3)nc(N3CCC(N)CC3)n(C)c2=O)cc1F`, the GI50 in [2] is 19.6 µM; in assay [3], 14.4 µM; in assay [10] it was 10.8 µM; in [4] it was 7.41 µM; in [5] it was 15.8 µM; in assay [6] it was 21.6 µM. The GI50 in assay [7] was 14.4 µM; in assay [9], 13.1 µM; in assay [8] it was 21.6 µM. Besides, the TGI was determined as 91.6 µM in [2]; 34 µM in [3]; 29.1 µM in [10]; 23.6 µM in assay [4]; 41.5 µM in assay [5]; 63.1 µM in assay [6]. Further, the TGI in assay [7] came to 28.9 µM; in [9], 26 µM; in assay [8], 99.2 µM.

As to `COc1ccc(C(O)c2ccccn2)cc1` (stereo not given), the TGI in assay [1], in assay [2], in assay [3], in [4], in [5] and in assay [6] was more than 100 µM each time. For the same molecule, the TGI in assay [7], in assay [9] and in assay [8] was more than 100 µM in each case.

Take `Oc1[nH]c2ccccc2c1C=Nc1ccc(-n2cncn2)cc1`: the GI50 in assay [2] was more than 21.9 µM; in assay [3], more than 25 µM; in assay [10], 12.9 µM; in [4], more than 14.5 µM; in assay [5], 18.3 µM; in assay [6], 15.7 µM. Moreover, the GI50 in assay [7] was more than 25 µM; in assay [9], more than 19.2 µM; in [8], 18.8 µM. In addition, the TGI in [2], in [3], in assay [10], in [4], in assay [5] and in [6] was more than 25 µM throughout. Besides, the TGI in assay [7], in [9] and in [8] was more than 25 µM each time.

For `O=C1Cc2cc(CCN3CCNCC3)c(Cl)cc2N1`, the GI50 in assay [2] was 46.4 µM; in [3], 3.65 µM; in assay [10], 43 µM; in assay [4], 6.89 µM; in [5], more than 100 µM; in assay [6], 5.11 µM. The GI50 was 2.77 µM in assay [7], more than 100 µM in assay [9] and 6.23 µM in assay [8]. Further, the TGI in [2], in [3], in assay [10], in assay [4], in assay [5] and in [6] was more than 100 µM in each case. Also, the TGI in assay [7] was 14.2 µM; in [9], more than 100 µM; in assay [8], more than 100 µM.

Regarding `CCC(c1ccccc1)c1cc(C(C)(C)C)cc(C(C)(C)C)c1O` (stereo not given), the TGI in [1] was found to be 30.1 µM; in assay [2] it was 30.9 µM; in [3], 35.7 µM; in [4] it was 34.2 µM; in assay [5] it was 32.6 µM; in [6] it was 28.7 µM. Moreover, the results for the TGI in [7], in [9] and in assay [8] were 32 µM, 31.9 µM and 30.5 µM, respectively.

In the case of `CCC(=O)Nc1nnc(Cc2ccc(OC)c(OC)c2)s1`, the GI50 is 78.7 µM in [1]; more than 100 µM in assay [2]; more than 100 µM in assay [3]; more than 100 µM in [10]; more than 100 µM in assay [5]; more than 100 µM in assay [6]. For the same molecule, the GI50 in assay [7], in [9] and in [8] was more than 100 µM throughout. Also, the TGI in [1], in assay [2], in [3], in assay [10], in [5] and in [6] was more than 100 µM each time. The TGI in assay [7], in [9] and in assay [8] was more than 100 µM in each case.

Turning to `Cc1ccc(-c2nc3sc(C)cn3c2/C=C2\C(=O)Nc3ccc(Cl)cc32)cc1`, the GI50 is 7.66 µM in assay [1]; 12.4 µM in assay [2]; 7.66 µM in assay [3]; 32.3 µM in [10]; 4.27 µM in assay [5]; 15.7 µM in assay [6]. Besides, the GI50 in assay [7] is 18 µM; in assay [9], 13.8 µM; in assay [8], 17.2 µM. For the same molecule, the TGI in assay [1] is 25.1 µM; in [2], 26 µM; in [3] it was 22.3 µM; in assay [10] it was more than 100 µM; in assay [5] it was 16 µM; in assay [6] it was 34.2 µM. In addition, the figures for the TGI in assay [7], in [9] and in assay [8] were 34.8 µM, 26.7 µM and 34.4 µM, respectively.

Regarding `C=CCSC(C)=O`, the TGI in assay [2], in assay [3], in [10], in [5], in [6] and in assay [7] was more than 100 µM throughout. The TGI in assay [9] and in assay [8] was more than 100 µM throughout.

With `COc1ccc(/C=C/c2ccnc3ccccc23)cc1OC`, the TGI was 45.5 µM in assay [2]; 21.6 µM in assay [3]; 25.5 µM in [10]; 27.2 µM in assay [4]; more than 100 µM in [5]; 40 µM in assay [6]. The TGI in assay [7] came out at 28.6 µM; in [9], 21.6 µM; in assay [8], 30.4 µM.

On to `O=C1C=CC(=O)c2c1nc(CBr)[nH]c2=O`, for which the TGI in assay [2] is more than 100 µM; in [3], more than 100 µM; in assay [10], 55 µM; in assay [4], more than 100 µM; in assay [5] it was more than 100 µM; in assay [6] it was more than 100 µM. For the same molecule, the TGI in assay [7] is 87.4 µM; in [9] it was more than 100 µM; in [8], more than 100 µM.
